Experimental data as given in patent US8765759B2, “Monocyclic CGRP receptor antagonists” (Merck Sharp & Dohme Corp., priority 2008, dated 2014).

Biological target: T1, recombinant human CL receptor/RAMP1 (Homo sapiens, UniProt O60894+Q16602)
T1 construct: expressed in transfected cells; membranes
Assay: RECOMBINANT RECEPTOR BINDING ASSAY (125I-hCGRP)
Conditions: 125I-hCGRP binding to membranes of HEK 293 cells expressing recombinant human CL receptor/RAMP1; stated as 'generally ... less than about'
Description: RECOMBINANT RECEPTOR: Human CL receptor (Genbank accession number L76380) was subcloned into the expression vector pIREShyg2 (BD Biosciences Clontech) as a 5′NheI and 3′ PmeI fragment. Human RAMP1 (Genbank accession number AJ001014) was subcloned into the expression vector pIRESpuro2 (BD Biosciences Clontech) as a 5′NheI and 3′NotI fragment. HEK 293 cells (human embryonic kidney cells; ATCC #CRL-1573) were cultured in DMEM with 4.5 g/L glucose, 1 mM sodium pyruvate and 2 mM glutamine supplemented with 10% fetal bovine serum (FBS), 100 units/mL penicillin and 100 μg/mL streptomycin, and maintained at 37° C. and 95% humidity. Cells were subcultured by treatment with 0.25% trypsin with 0.1% EDTA in HBSS. Stable cell line generation was accomplished by co-transfecting 10 μg of DNA with 30 μg Lipofectamine 2000 (Invitrogen) in 75 cm^2 flasks. CL receptor and RAMP1 expression constructs were co-transfected in equal amounts. Twenty-four hours after transfection the cells were diluted and selective medium (growth medium+300 μg/mL hygromycin and 1 μg/mL puromycin) was added the following day. A clonal cell line was generated by single cell deposition utilizing a FACS Vantage SE (Becton Dickinson). Growth medium was adjusted to 150 μg/mL hygromycin and 0.5 μg/mL puromycin for cell propagation.
RECOMBINANT RECEPTOR BINDING ASSAY: Cells expressing recombinant human CL receptor/RAMP1 were washed with PBS and harvested in harvest buffer containing 50 mM HEPES, 1 mM EDTA and Complete protease inhibitors (Roche). The cell suspension was disrupted with a laboratory homogenizer and centrifuged at 48,000 g to isolate membranes. The pellets were resuspended in harvest buffer plus 250 mM sucrose and stored at −70° C. For binding assays, 20 μg of membranes were incubated in 1 ml binding buffer (10 mM HEPES, pH 7.4, 5 mM MgCl2, and 0.2% BSA) for 3 hours at room temperature containing […] ^125I-hCGRP (GE Healthcare) and antagonist. The assay was terminated by filtration through 96-well GFB glass fiber filter plates (PerkinElmer) that had been blocked with 0.05% polyethyleneimine. The filters were washed 3 times with ice-cold assay buffer (10 mM HEPES, pH 7.4 and 5 mM MgCl2). Scintillation fluid was added and the plates were counted on a Topcount (Packard). Non-specific binding was determined and the data analysis was carried out with the apparent dissociation constant (Ki) determined by using a non-linear least squares fitting the bound CPM data to the equation below:
[formula] […]

T1 sequence (Q16602 23-461): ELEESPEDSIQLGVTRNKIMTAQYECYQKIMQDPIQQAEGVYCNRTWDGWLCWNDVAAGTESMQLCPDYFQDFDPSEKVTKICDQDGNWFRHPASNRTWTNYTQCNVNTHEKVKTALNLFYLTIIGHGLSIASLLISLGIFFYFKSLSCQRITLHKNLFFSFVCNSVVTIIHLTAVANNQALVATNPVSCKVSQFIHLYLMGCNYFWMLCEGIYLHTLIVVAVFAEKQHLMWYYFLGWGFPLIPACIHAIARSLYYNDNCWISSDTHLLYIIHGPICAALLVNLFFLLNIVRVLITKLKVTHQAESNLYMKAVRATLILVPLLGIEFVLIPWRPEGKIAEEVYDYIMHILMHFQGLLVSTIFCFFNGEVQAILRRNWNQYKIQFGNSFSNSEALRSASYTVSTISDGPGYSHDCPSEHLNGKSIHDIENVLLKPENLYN
T1 sequence (O60894 27-148): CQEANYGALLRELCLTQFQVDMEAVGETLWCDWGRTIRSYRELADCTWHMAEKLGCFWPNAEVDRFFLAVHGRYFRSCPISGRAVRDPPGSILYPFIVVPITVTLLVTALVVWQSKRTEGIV

Ki, < 50 µM:
CN1C[C@@](C)(c2cc(F)cc(F)c2)N(C/C=C/c2ccc3c(c2)C[C@@]2(C3)C(=O)Nc3ncccc32)C(=O)C12CCCC2 [Example 8], CN1C[C@@](C)(c2cc(F)cc(F)c2)N(CCCc2ccc3c(c2)C[C@@]2(C3)C(=O)Nc3ncccc32)C(=O)C12CCCC2 [Example 9], C[C@@]1(c2cc(F)cc(F)c2)CNC2(CCCC2)C(=O)N1CCOc1ccc2c(c1)C[C@@]1(C2)C(=O)Nc2ncccc21 [Example 13], CN1C[C@@](C)(c2cc(F)cc(F)c2)N(CCOc2ccc3c(c2)C[C@@]2(C3)C(=O)Nc3ncccc32)C(=O)C12CCCC2 [Example 15]
